Structures can show the parent of a compound that is named as a salt. Where two headings read alike, the source gives them in different places.

In assay [1] the target is T1, 20S Human Erythrocyte Proteasome (HEP) (Homo sapiens, UniProt P20618+P28074).
T1 construct: 20S Human Erythrocyte Proteasome (HEP), purchased from Immatics Biotechnologies Inc; purchased Immatics Biotechnologies Inc., Tübingen, Germany; host or cells: human erythrocytes (natural source)
Nature of the assay: Chymotrypsin-like activity of 20S Human Erythrocyte Proteasome (HEP), IC50 determination. Type of assay: biochemical. The settings on record: assay of Example C, inhibition of HEP. In outline: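 20S proteasome at 0.2 μg/mL (about 0.6 nM catalytic sites) in 20 mM Tris with 0.04% SDS, preincubated 15 min at 37° C with inhibitor before Suc-LLVY-AMC (100 μM final). AMC fluorescence read in the linear range; triplicates, IC50 from concentration series.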

In assay [2] the target is T2, proteasome in Molt-4 cells (human leukemia) (Homo sapiens, UniProt P20618+P28074).
T2 sequence (P28074 60-263): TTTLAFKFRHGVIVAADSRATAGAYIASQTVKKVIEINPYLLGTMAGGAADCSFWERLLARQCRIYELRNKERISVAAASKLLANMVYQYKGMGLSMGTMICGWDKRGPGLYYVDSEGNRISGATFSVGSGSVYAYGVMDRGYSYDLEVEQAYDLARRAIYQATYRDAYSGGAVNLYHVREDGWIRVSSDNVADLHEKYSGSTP
T2 sequence (P20618 29-241): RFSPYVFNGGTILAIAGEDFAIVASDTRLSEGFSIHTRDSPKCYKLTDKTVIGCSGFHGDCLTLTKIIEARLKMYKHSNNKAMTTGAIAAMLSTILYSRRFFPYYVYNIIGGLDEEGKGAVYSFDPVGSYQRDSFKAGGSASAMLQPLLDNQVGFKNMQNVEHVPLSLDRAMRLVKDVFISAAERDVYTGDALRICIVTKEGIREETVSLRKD
Type of assay: cell-based. In outline: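 Intact Molt-4 cells (6×10^6 cells/mL) in HEPES-buffered saline were preincubated with inhibitor 15 min at 37 °C, then given cell-permeable MeOSuc-FLF-AFC at 25 μM final.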

[3] abbreviates: assay of Example E, inhibition of MOLT4; read-out: MOLT4 (EC50).

Regarding `Cc1cccc(/C=C/C(=O)N[C@@H](CCCNC(=N)N[N+](=O)[O-])C(=O)N[C@@H](CC(C)C)B2O[C@@H]3C[C@@H]4C[C@@H](C4(C)C)[C@]3(C)O2)c1` [D.3.57, 3-(3-Methylphenyl)acrylamide,N-[(1S)-1-[[[(1R)-1-[(3aS,4S,6S,7aR)-hexahydro-3a,5,5-trimethyl-4,6-methano-1,3,2-benzodioxaborol-2-yl]-3-methylbutyl]amino]carbonyl]-4-[[imino(nitroamino)methyl]amino]butyl]], in assay [1], the IC50 is < 10 nM. For the same compound, the EC50 in assay [2] (setting [3]) is < 200 nM.
On to `CC(C)C[C@H](NC(=O)[C@H](CCCNC(=N)N[N+](=O)[O-])NC(=O)CCc1cccs1)B1O[C@@H]2C[C@@H]3C[C@@H](C3(C)C)[C@]2(C)O1` [D.3.39, 3-Thiophen-2-yl-propanamide,N-[(1S)-1-[[[(1R)-1-[(3aS,4S,6S,7aR)-hexahydro-3a,5,5-trimethyl-4,6-methano-1,3,2-benzodioxaborol-2-yl]-3-methylbutyl]amino]carbonyl]-4-[[imino(nitroamino)methyl]amino]butyl]], for which the IC50 in assay [1] is < 10 nM. In addition, the EC50 in assay [2] (setting [3]) is < 200 nM.
On to `CCCCCCCCCCCNC(=O)N[C@@H](CCCNC(=N)N[N+](=O)[O-])C(=O)N[C@@H](CC(C)C)B1O[C@@H]2C[C@@H]3C[C@@H](C3(C)C)[C@]2(C)O1` [D.6.5, N-[(1S)-1-[[[(1R)-1-[(3aS,4S,6S,7aR)-hexahydro-3a,5,5-trimethyl-4,6-methano-1,3,2-benzodioxaborol-2-yl]-3-methylbutyl]amino]carbonyl]-4-[[imino(nitroamino)methyl]amino]butyl]-N′-undecylurea], for which the IC50 in assay [1] is < 10 nM. In addition, the EC50 in assay [2] (setting [3]) was < 200 nM.
The like results for `CCCCCCCCCC(=O)N[C@@H](CNC(=O)c1cccs1)C(=O)N[C@@H](CC(C)C)B(O)O` [E.5.9] were, in that order, < 10 nM and < 200 nM.
On to `CCCCc1ccc(S(=O)(=O)N[C@@H](CCCNC(=N)N[N+](=O)[O-])C(=O)N[C@@H](CC(C)C)B2O[C@@H]3C[C@@H]4C[C@@H](C4(C)C)[C@]3(C)O2)cc1` [D.4.7, 4-Butyl-benzenesulfonamide, N-[(1S)-1-[[[(1R)-1-[(3aS,4S,6S,7aR)-hexahydro-3a,5,5-trimethyl-4,6-methano-1,3,2-benzodioxaborol-2-yl]-3-methylbutyl]amino]carbonyl]-4-[[imino(nitroamino)methyl]amino]butyl]], for which the IC50 in assay [1] is < 100 nM. Besides, the EC50 in assay [2] (setting [3]) is < 200 nM.
As for `COCCOCC(=O)N[C@@H](CCCNC(=N)N[N+](=O)[O-])C(=O)N[C@@H](CC(C)C)B(O)O` [E.1.6, Boronic acid, [(1R)-1-[[(2S)-5-[[imino(nitroamino)methyl]amino]-2-[[2-(2-methoxyethoxy)acetyl]amino]-1-oxopentyl]amino]-3-methylbutyl], HCl salt], in assay [1], the half-maximal inhibitory concentration (IC50) was < 100 nM. Moreover, in assay [2] (read-out: MOLT4 (EC50); assay of Example E, inhibition of MOLT4), the concentration giving a half-maximal response (EC50) was 2000 to 10000 nM.
As to `CC(C)C[C@H](NC(=O)[C@H](CCCNC(=N)N[N+](=O)[O-])NC(=O)c1ccc(Br)cc1)B1O[C@@H]2C[C@@H]3C[C@@H](C3(C)C)[C@]2(C)O1` [D.3.24, 4-Bromobenzamide,N-[(1S)-1-[[[(1R)-1-[(3aS,4S,6S,7aR)-hexahydro-3a,5,5-trimethyl-4,6-methano-1,3,2-benzodioxaborol-2-yl]-3-methylbutyl]amino]carbonyl]-4-[[imino(nitroamino)methyl]amino]butyl]], in assay [1], the 50% inhibitory concentration (IC50) was < 10 nM. Besides, in assay [2] (setting [3]), the concentration giving a half-maximal response (EC50) is < 200 nM.
The like results for `CC(C)C[C@H](NC(=O)[C@H](CCCNC(=N)N[N+](=O)[O-])NC(=O)CC1CCCCCC1)B(O)O` [E.2.29, Boronic acid, [(1R)-1-[[(2S)-5-[[imino(nitroamino)methyl]amino]-2-[(2-cycloheptylacetyl)amino]-1-oxopentyl]amino]-3-methylbutyl]] were, in that order, < 10 nM and 2000 to 10000 nM.
`CSCC(=O)N[C@@H](CCCNC(=N)N[N+](=O)[O-])C(=O)N[C@@H](CC(C)C)B(O)O` [E.2.68, Boronic acid, [(1R)-1-[[(2S)-5-[[imino(nitroamino)methyl]amino]-2-[(2-methylsulfanylacetyl)amino]-1-oxopentyl]amino]-3-methylbutyl]]: the IC50 in assay [1] is < 10 nM. Also, the EC50 in assay [2] (setting [3]) is > 10000 nM.
Take `CCCCCCCCC(=O)N[C@@H](CCCNC(=N)N[N+](=O)[O-])C(=O)N[C@@H](CC(C)C)B1O[C@@H]2C[C@@H]3C[C@@H](C3(C)C)[C@]2(C)O1` [D.3.15, Nonanamide,N-[(1S)-1-[[[(1R)-1-[(3aS,4S,6S,7aR)-hexahydro-3a,5,5-trimethyl-4,6-methano-1,3,2-benzodioxaborol-2-yl]-3-methylbutyl]amino]carbonyl]-4-[[imino(nitroamino)methyl]amino]butyl]]: the IC50 in assay [1] is < 10 nM. In assay [2] (setting [3]), the concentration giving a half-maximal response (EC50) is < 200 nM.
As for `CC(C)C[C@H](NC(=O)[C@H](CCCNC(=N)N[N+](=O)[O-])NC(=O)CCCCCNS(=O)(=O)c1ccccc1)B1O[C@@H]2C[C@@H]3C[C@@H](C3(C)C)[C@]2(C)O1` [D.1.12, 6-Benzenesulfonylaminohexanamide,N-[(1S)-1-[[[(1R)-1-[(3aS,4S,6S,7aR)-hexahydro-3a,5,5-trimethyl-4,6-methano-1,3,2-benzodioxaborol-2-yl]-3-methylbutyl]amino]carbonyl]-4-[[imino(nitroamino)methyl]amino]butyl]], the IC50 in assay [1] was < 10 nM. The concentration giving a half-maximal response (EC50) in assay [2] (setting [3]) fell in the range of 200 to 2000 nM.
For `CCCC/C=C/C(=O)N[C@@H](CCCNC(=N)N[N+](=O)[O-])C(=O)N[C@@H](CC(C)C)B1O[C@@H]2C[C@@H]3C[C@@H](C3(C)C)[C@]2(C)O1` [D.3.66, Hept-2-enamide,N-[(1S)-1-[[[(1R)-1-[(3aS,4S,6S,7aR)-hexahydro-3a,5,5-trimethyl-4,6-methano-1,3,2-benzodioxaborol-2-yl]-3-methylbutyl]amino]carbonyl]-4-[[imino(nitroamino)methyl]amino]butyl]], in assay [1], the IC50 is < 10 nM. The concentration giving a half-maximal response (EC50) in assay [2] (setting [3]) is < 200 nM.
In the same order, the values of `CC(C)C[C@H](NC(=O)[C@H](CCCNC(=N)N[N+](=O)[O-])NC(=O)Cn1cnnn1)B(O)O` [E.2.53, Boronic acid, [(1R)-1-[[(2S)-5-[[imino(nitroamino)methyl]amino]-2-[[2-(tetrazol-1-yl)acetyl]amino]-1-oxopentyl]amino]-3-methylbutyl]] are < 100 nM and > 10000 nM.
For `CC(C)C[C@H](NC(=O)[C@H](CCCNC(=N)N[N+](=O)[O-])NC(=O)c1ccc(-n2cccc2)cc1)B(O)O` [D.7.27, Boronic acid, [(1R)-1-[[(2S)-5-[[imino(nitroamino)methyl]amino]-2-[(4-pyrrol-1-ylbenzoyl)amino]-1-oxopentyl]amino]-3-methylbutyl]], in assay [1], the IC50 was < 10 nM. For the same compound, the EC50 in assay [2] (setting [3]) was 2000 to 10000 nM.
In the same order, the values of `CCCC/C=C/C(=O)N[C@@H](CCCNC(=N)N[N+](=O)[O-])C(=O)N[C@@H](CC(C)C)B(O)O` [E.2.21, Boronic acid, [(1R)-1-[[(2S)-5-[[imino(nitroamino)methyl]amino]-2-[(hept-2-enoyl)amino]-1-oxopentyl]amino]-3-methylbutyl]] are < 10 nM and 2000 to 10000 nM.
In the case of `Cc1ccc(/C=C/C(=O)N[C@@H](CCCNC(=N)N[N+](=O)[O-])C(=O)N[C@@H](CC(C)C)B(O)O)cc1` [E.2.60, Boronic acid, [(1R)-1-[[(2S)-5-[[imino(nitroamino)methyl]amino]-2-[[3-(4-methylphenyl)acryl]amino]-1-oxopentyl]amino]-3-methylbutyl]], the IC50 in assay [1] was < 10 nM. Also, in assay [2] (setting [3]), the EC50 fell in the range of 2000 to 10000 nM.
